Laboratory results as given in ChEMBL document CHEMBL1134707, “Orally active docetaxel analogue: synthesis of 10-deoxy-10-C-morpholinoethyl docetaxel analogues” (2001).
≈ marks a conversion by molar mass, not a printed value.

Key:
PC-6 [1] = assay: Cytotoxic activity against PC-6 human small cell lung cancer; assay type: functional
PC-6 [2] = assay: Cytotoxic activity against PC-6/VCR29-9 vincristine resistant cell line expressing P-gp; assay type: functional; conditions: Homo sapiens
PC-12 [3] = assay: Cytotoxic activity against PC-12 human non-small cell lung cancer cell line
PC-12 [4] = assay: Cytotoxic activity against PC-12 human non-small cell lung cancer cell line; assay type: functional; conditions: Rattus norvegicus
Mus musculus [5] = assay: Antitumor activity against B16 melanoma in mice at dose of 75 mg/kg by po administration and IR value is reported; assay type: functional
Mus musculus [6] = assay: Antitumor activity against B16 melanoma in mice at dose of 50 mg/kg by po administration and IR value is reported; assay type: functional
Mus musculus [7] = assay: Antitumor activity against B16 melanoma at dose of 33.3 mg/kg by po administration in mice and mortality rate is reported; assay type: functional
Mus musculus [8] = assay: Antitumor activity against B16 melanoma at dose of 50 mg/kg by po administration in mice and mortality rate is reported; assay type: functional
Mus musculus [9] = assay: Antitumor activity against B16 melanoma in mice at dose of 33.3 mg/kg by iv administration and body weight loss is reported; assay type: functional
Mus musculus [10] = assay: Antitumor activity against B16 melanoma in mice at dose of 22.2 mg/kg by iv administration and IR value is reported; assay type: functional
Mus musculus [11] = assay: Antitumor activity against B16 melanoma at dose of 75 mg/kg by iv administration in mice and mortality rate is reported; assay type: functional
Mus musculus [12] = assay: Antitumor activity against B16 melanoma in mice at dose of 33.3 mg/kg by po administration and body weight loss is reported; assay type: functional
Mus musculus [13] = assay: Antitumor activity against B16 melanoma in mice at dose of 112.5 mg/kg by po administration and IR value is reported; assay type: functional
Mus musculus [14] = assay: Antitumor activity against B16 melanoma in mice at dose of 75 mg/kg by po administration and body weight loss is reported; assay type: functional
Mus musculus [15] = assay: Antitumor activity against B16 melanoma in mice at dose of 75 mg/kg by iv administration and body weight loss is reported; assay type: functional
Mus musculus [16] = assay: Antitumor activity against B16 melanoma in mice at dose of 112.5 mg/kg by po administration and body weight loss is reported; assay type: functional
Mus musculus [17] = assay: Antitumor activity against B16 melanoma in mice at dose of 33.3 mg/kg by po administration and IR value is reported; assay type: functional
Mus musculus [18] = assay: Antitumor activity against B16 melanoma in mice at dose of 33.3 mg/kg by iv administration and IR value is reported; assay type: functional
Mus musculus [19] = assay: Antitumor activity against B16 melanoma in mice at dose of 50 mg/kg by iv administration and body weight loss is reported; assay type: functional
Mus musculus [20] = assay: Antitumor activity against B16 melanoma at dose of 50 mg/kg by iv administration in mice and mortality rate is reported; assay type: functional
Mus musculus [21] = assay: Antitumor activity against B16 melanoma in mice at dose of 75 mg/kg by iv administration and IR value is reported; assay type: functional
Mus musculus [22] = assay: Antitumor activity against B16 melanoma in mice at dose of 22.2 mg/kg by po administration and IR value is reported; assay type: functional
Mus musculus [23] = assay: Antitumor activity against B16 melanoma at dose of 112.5 mg/kg by po administration in mice and mortality rate is reported; assay type: functional
Mus musculus [24] = assay: Antitumor activity against B16 melanoma in mice at dose of 22.2 mg/kg by iv administration and body weight loss is reported; assay type: functional
Mus musculus [25] = assay: Antitumor activity against B16 melanoma at dose of 100 mg/kg by iv administration in mice and mortality rate is reported; assay type: functional
Mus musculus [26] = assay: Antitumor activity against B16 melanoma in mice at dose of 50 mg/kg by iv administration and IR value is reported; assay type: functional
Mus musculus [27] = assay: Antitumor activity against B16 melanoma at dose of 75 mg/kg by po administration in mice and mortality rate is reported; assay type: functional
Mus musculus [28] = assay: Antitumor activity against B16 melanoma in mice at dose of 22.2 mg/kg by po administration and body weight loss is reported; assay type: functional
Mus musculus [29] = assay: Antitumor activity against B16 melanoma at dose of 22.2 mg/kg by po administration in mice and mortality rate is reported; assay type: functional
Mus musculus [30] = assay: Antitumor activity against B16 melanoma in mice at dose of 50 mg/kg by po administration and body weight loss is reported; assay type: functional
Mus musculus [31] = assay: Antitumor activity against B16 melanoma at dose of 33.3 mg/kg by iv administration in mice and mortality rate is reported; assay type: functional
Mus musculus [32] = assay: Antitumor activity against B16 melanoma in mice at dose of 100 mg/kg by iv administration and IR value is reported; assay type: functional
Mus musculus [33] = assay: Antitumor activity against B16 melanoma in mice at dose of 600 mg/kg by po administration and IR value is reported; assay type: functional
Mus musculus [34] = assay: Antitumor activity against B16 melanoma at dose of 600 mg/kg by po administration in mice and mortality rate is reported; assay type: functional
Mus musculus [35] = assay: Antitumor activity against B16 melanoma in mice at dose of 100 mg/kg by iv administration and body weight loss is reported; assay type: functional
Mus musculus [36] = assay: Antitumor activity against B16 melanoma in mice at dose of 600 mg/kg by po administration and body weight loss is reported; assay type: functional

CC(=O)O[C@@]12CO[C@@H]1C[C@@H](F)[C@@]1(C)C(=O)[C@H](CCN3CCOCC3)C3=C(C)[C@@H](OC(=O)[C@H](O)[C@@H](NC(=O)OC(C)(C)C)c4ccccc4)C[C@@](O)([C@@H](OC(=O)c4ccccc4)C12)C3(C)C (some centres not stated)
GI50 (PC-6 [1]): 0.379 ng/mL (≈ 0.418 nM) | GI50 (PC-6 [2]): 16.2 ng/mL (≈ 17.9 nM) | GI50 (PC-12 [3]): 2.55 ng/mL (≈ 2.81 nM)

CC(=O)O[C@@]12CO[C@@H]1C[C@H](O)[C@@]1(C)C(=O)[C@H](CCN3CCOCC3)C3=C(C)[C@@H](OC(=O)[C@H](O)[C@@H](NC(=O)OC(C)(C)C)c4ccccc4)C[C@@](O)([C@@H](OC(=O)c4ccccc4)[C@H]21)C3(C)C
GI50 (PC-6 [1]): 1.72 ng/mL (≈ 1.9 nM) | GI50 (PC-6 [2]): 76.3 ng/mL (≈ 84.3 nM) | GI50 (PC-12 [3]): 21.5 ng/mL (≈ 23.8 nM)

CC(=O)O[C@@]12CO[C@@H]1C[C@H](OCF)C1(C)C(=O)[C@H](CCN3CCOCC3)C3=C(C)[C@@H](OC(=O)[C@H](O)[C@@H](NC(=O)OC(C)(C)C)c4ccccc4)C[C@@](O)([C@@H](OC(=O)c4ccccc4)C12)C3(C)C (some centres not stated)
GI50 (PC-6 [1]): 0.246 ng/mL (≈ 0.263 nM) | GI50 (PC-6 [2]): 40.4 ng/mL (≈ 43.1 nM) | GI50 (PC-12 [4]): 1.5 ng/mL (≈ 1.6 nM)

CC(=O)O[C@@]12CO[C@@H]1C=C[C@@]1(C)C(=O)[C@H](CCN3CCOCC3)C3=C(C)[C@@H](OC(=O)[C@H](O)[C@@H](NC(=O)OC(C)(C)C)c4ccccc4)C[C@@](O)([C@@H](OC(=O)c4ccccc4)C12)C3(C)C (some centres not stated)
GI50 (PC-6 [1]): 0.5 ng/mL (≈ 0.564 nM) | GI50 (PC-6 [2]): 18 ng/mL (≈ 20.3 nM) | GI50 (PC-12 [3]): 0.824 ng/mL (≈ 0.929 nM)

CC(=O)O[C@@]12CO[C@@H]1CC[C@@]1(C)C(=O)[C@H](CCN3CCOCC3)C3=C(C)[C@@H](OC(=O)[C@H](O)[C@@H](NC(=O)OC(C)(C)C)c4ccccc4)C[C@@](O)([C@@H](OC(=O)c4ccccc4)C12)C3(C)C (some centres not stated)
GI50 (PC-6 [1]): 0.761 ng/mL (≈ 0.856 nM) | GI50 (PC-6 [2]): 20.4 ng/mL (≈ 22.9 nM) | GI50 (PC-12 [3]): 1.47 ng/mL (≈ 1.65 nM)

CO[C@H]1C[C@H]2OC[C@@]2(OC(C)=O)[C@H]2[C@H](OC(=O)c3ccccc3)[C@]3(O)C[C@H](OC(=O)[C@H](O)[C@@H](NC(=O)OC(C)(C)C)c4ccccc4)C(C)=C([C@@H](CCN4CCOCC4)C(=O)[C@]12C)C3(C)C
IR (Mus musculus [5]): 98.3% | IR (Mus musculus [6]): 96.2% | Mortality (Mus musculus [7]): 0 | Mortality (Mus musculus [8]): 0 | BWL (Mus musculus [9]): 9.4% | IR (Mus musculus [10]): 93.7% | GI50 (PC-6 [1]): 0.266 ng/mL (≈ 0.289 nM) | Mortality (Mus musculus [11]): 5 | GI50 (PC-6 [2]): 9.01 ng/mL (≈ 9.8 nM) | BWL (Mus musculus [12]): 0.9% | IR (Mus musculus [13]): 99% | BWL (Mus musculus [14]): 5% | BWL (Mus musculus [15]): 19.2% | BWL (Mus musculus [16]): <20% | IR (Mus musculus [17]): 82.8% | IR (Mus musculus [18]): 94.4% | BWL (Mus musculus [19]): 18% | Mortality (Mus musculus [20]): 0 | IR (Mus musculus [21]): 99.4% | GI50 (PC-12 [3]): 0.756 ng/mL (≈ 0.823 nM) | IR (Mus musculus [22]): 81.7% | Mortality (Mus musculus [23]): 4 | BWL (Mus musculus [24]): 5.7% | Mortality (Mus musculus [25]): 0 | IR (Mus musculus [26]): 98.6% | Mortality (Mus musculus [27]): 0 | BWL (Mus musculus [28]): <0% | Mortality (Mus musculus [29]): 0 | BWL (Mus musculus [30]): <1.7% | Mortality (Mus musculus [31]): 0

CC(=O)O[C@@]12CO[C@@H]1CC1C[C@@]13C(=O)[C@H](CCN1CCOCC1)C1=C(C)[C@@H](OC(=O)[C@H](O)[C@@H](NC(=O)OC(C)(C)C)c4ccccc4)C[C@@](O)([C@@H](OC(=O)c4ccccc4)C32)C1(C)C (some centres not stated)
GI50 (PC-6 [1]): 0.873 ng/mL (≈ 0.984 nM) | GI50 (PC-6 [2]): 38.6 ng/mL (≈ 43.5 nM) | GI50 (PC-12 [3]): 3.56 ng/mL (≈ 4.01 nM)

CC(=O)O[C@@]12CO[C@@H]1C[C@H](O)[C@@]1(C)C(=O)[C@H](O)C3=C(C)[C@@H](OC(=O)[C@H](O)[C@@H](NC(=O)OC(C)(C)C)c4ccccc4)C[C@@](O)([C@@H](OC(=O)c4ccccc4)[C@H]21)C3(C)C.O.O.O [DOCETAXEL]
IR (Mus musculus [32]): 95.1% | GI50 (PC-6 [1]): 0.408 ng/mL | GI50 (PC-6 [2]): 39.6 ng/mL | IR (Mus musculus [33]): 6.2% | Mortality (Mus musculus [34]): 0 | GI50 (PC-12 [3]): 11.7 ng/mL | BWL (Mus musculus [35]): <0% | Mortality (Mus musculus [25]): 0 | BWL (Mus musculus [36]): <0%
